The supplement of paper PMC11619387
Values after ≈ are worked out from the molar mass of the structure shown. ± gives the standard deviation of the averaged measurements.

Key:
[1] = tested on: Pseudomonas aeruginosa PAO1-Xen41; assay: Hill coefficient of concentration-effect curve (unitless); higher = steeper concentration-effect curve
Method: (§1)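 Time-kill assays of bioluminescent P. aeruginosa PAO1-Xen41 (start ~5e6 CFU/mL) in 96-well plates at 37 °C, 150 rpm. Luminescence was read hourly for 20 h in cation-adjusted Mueller-Hinton broth, either non-conditioned (MH broth with or without supplements) or conditioned by one of 13 CF-associated species, then filter-sterilised and nutrient-replenished. Growth/kill rates came from log-linear regression of the exponential phase at 9-10 antibiotic concentrations, and Hill (Emax) models were fitted with drc for each replicate.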

[2] = tested on: Pseudomonas aeruginosa PAO1-Xen41; assay: EC50 of growth/kill rate concentration-effect curve
Method: as §1

[3] = tested on: Pseudomonas aeruginosa PAO1-Xen41; assay: Emax, maximal drug effect on net growth rate (fitted lower asymptote) (per hour (slope of log luminescence)); higher = weaker maximal killing (less negative)
Method: as §1

CN(C)c1ccc(O)c2c1C[C@H]1C[C@H]3[C@H](N(C)C)C(O)=C(C(N)=O)C(=O)[C@@]3(O)C(O)=C1C2=O [minocycline]
Conditions	EC50, [2] [µg/mL]	Emax, [3]	Hill coefficient, [1]
medium (conditioned by secondary species or non-conditioned control): A. baumannii	41.5 ± 2.6 (≈ 90.7 µM)	-0.0946 ± 0.0024	3.37 ± 0.23
medium (conditioned by secondary species or non-conditioned control): A. fumigatus	4.51 ± 1.3 (≈ 9.87 µM)	-0.12 ± 0.034	5.95 ± 4.4
medium (conditioned by secondary species or non-conditioned control): A. xylosoxidans	29.9 ± 15 (≈ 65.4 µM)	-0.193 ± 0.029	6.19 ± 3.1
medium (conditioned by secondary species or non-conditioned control): B. cepacia	65.8 ± 34 (≈ 144 µM)	-0.464 ± 0.13	1.13 ± 0.18
medium (conditioned by secondary species or non-conditioned control): C. albicans	7.19 ± 3.2 (≈ 15.7 µM)	-0.223 ± 0.072	5.63 ± 7.1
medium (conditioned by secondary species or non-conditioned control): H. influenzae	9.75 ± 0.44 (≈ 21.3 µM)	-0.198 ± 0.017	1.67 ± 0.093
medium (conditioned by secondary species or non-conditioned control): M. abcessus	81 ± 10 (≈ 177 µM)	-0.72 ± 0.062	0.784 ± 0.0094
medium (conditioned by secondary species or non-conditioned control): M. avium	6.33 ± 2.2 (≈ 13.8 µM)	-0.13 ± 0.057	5.77 ± 6.8
medium (conditioned by secondary species or non-conditioned control): M. catarrhalis	21.1 ± 7.2 (≈ 46.2 µM)	-0.0725 ± 0.054	3.92 ± 3.6
medium (conditioned by secondary species or non-conditioned control): MH broth	18.7 ± 5.8 (≈ 40.9 µM)	-0.41 ± 0.051	1.16 ± 0.093
medium (conditioned by secondary species or non-conditioned control): MH broth + ADC	3.939 ± 0.011	-0.071 ± 0.0075	15 ± 0.58
medium (conditioned by secondary species or non-conditioned control): MH broth + LHB + NAD	8.7 ± 3	-0.184 ± 0.081	1.74 ± 0.69
medium (conditioned by secondary species or non-conditioned control): MH broth + glucose	19.7 ± 5.8	-0.432 ± 0.079	1.2 ± 0.25
medium (conditioned by secondary species or non-conditioned control): R. mannitolilytica	72.8 ± 23 (≈ 159 µM)	-0.649 ± 0.13	0.909 ± 0.074
medium (conditioned by secondary species or non-conditioned control): S. aureus	87.8 ± 18 (≈ 192 µM)	-0.776 ± 0.079	0.785 ± 0.035
medium (conditioned by secondary species or non-conditioned control): S. maltophilia	81 ± 24 (≈ 177 µM)	-0.713 ± 0.1	0.781 ± 0.041
medium (conditioned by secondary species or non-conditioned control): S. pneumoniae	4.82 ± 0.48 (≈ 10.5 µM)	-0.0595 ± 0.019	2.06 ± 0.38

CO[C@H]1/C=C/O[C@@]2(C)Oc3c(C)c(O)c4c(O)c(c(/C=N/N5CCN(C)CC5)c(O)c4c3C2=O)NC(=O)/C(C)=C\C=C\[C@H](C)[C@H](O)[C@@H](C)[C@@H](O)[C@@H](C)[C@H](OC(C)=O)[C@@H]1C [rifampicin]
Conditions	EC50, [2] [µg/mL]	Emax, [3]	Hill coefficient, [1]
medium (conditioned by secondary species or non-conditioned control): A. baumannii	58.4 ± 7.1 (≈ 71 µM)	-0.428 ± 0.0089	2.64 ± 0.59
medium (conditioned by secondary species or non-conditioned control): A. fumigatus	16.6 ± 1.4 (≈ 20.2 µM)	-0.427 ± 0.039	1.865 ± 0.018
medium (conditioned by secondary species or non-conditioned control): A. xylosoxidans	60.8 ± 6.4 (≈ 73.9 µM)	-0.447 ± 0.0084	3.63 ± 0.45
medium (conditioned by secondary species or non-conditioned control): B. cepacia	53.9 ± 5 (≈ 65.4 µM)	-0.4437 ± 0.0044	4.03 ± 0.44
medium (conditioned by secondary species or non-conditioned control): C. albicans	26.5 ± 3.1 (≈ 32.2 µM)	-0.543 ± 0.034	2.68 ± 0.74
medium (conditioned by secondary species or non-conditioned control): H. influenzae	18.7 ± 3.9 (≈ 22.7 µM)	-0.165 ± 0.024	5.03 ± 4.8
medium (conditioned by secondary species or non-conditioned control): M. abcessus	43.2 ± 6 (≈ 52.5 µM)	-0.468 ± 0.021	2.15 ± 0.5
medium (conditioned by secondary species or non-conditioned control): M. avium	72 ± 20 (≈ 87.5 µM)	-1.04 ± 0.058	0.999 ± 0.14
medium (conditioned by secondary species or non-conditioned control): M. catarrhalis	58.7 ± 8.3 (≈ 71.4 µM)	-0.151 ± 0.0049	2.74 ± 0.12
medium (conditioned by secondary species or non-conditioned control): MH broth	31.7 ± 8.1 (≈ 38.5 µM)	-0.425 ± 0.016	2.61 ± 0.61
medium (conditioned by secondary species or non-conditioned control): MH broth + ADC	83.3 ± 34	-1.1 ± 0.11	0.89 ± 0.074
medium (conditioned by secondary species or non-conditioned control): MH broth + LHB + NAD	25.2 ± 3	-0.141 ± 0.026	3.8 ± 0.97
medium (conditioned by secondary species or non-conditioned control): MH broth + glucose	26.7 ± 2.7	-0.552 ± 0.023	2.46 ± 0.46
medium (conditioned by secondary species or non-conditioned control): R. mannitolilytica	40.4 ± 3.4 (≈ 49 µM)	-0.4494 ± 0.0013	5.28 ± 1.3
medium (conditioned by secondary species or non-conditioned control): S. aureus	43.6 ± 17 (≈ 53 µM)	-0.461 ± 0.029	2.1 ± 0.68
medium (conditioned by secondary species or non-conditioned control): S. maltophilia	51.8 ± 1 (≈ 62.9 µM)	-0.437 ± 0.0072	3.3 ± 0.12
medium (conditioned by secondary species or non-conditioned control): S. pneumoniae	20.8 ± 1.6 (≈ 25.3 µM)	-0.142 ± 0.0056	4.69 ± 1.2

NC[C@H]1O[C@H](O[C@H]2[C@H](O)[C@@H](O[C@H]3O[C@H](CO)[C@@H](O)[C@H](N)[C@H]3O)[C@H](N)C[C@@H]2N)[C@H](N)C[C@@H]1O [tobramycin]
Conditions	EC50, [2] [µg/mL]	Emax, [3]	Hill coefficient, [1]
medium (conditioned by secondary species or non-conditioned control): A. baumannii	0.257 ± 0.0043 (≈ 0.55 µM)	-0.121 ± 0.0078	16.7 ± 2.5
medium (conditioned by secondary species or non-conditioned control): A. fumigatus	0.7033 ± 0.0034 (≈ 1.5 µM)	-0.188 ± 0.0083	4.28 ± 0.12
medium (conditioned by secondary species or non-conditioned control): A. xylosoxidans	0.2759 ± 0.0025 (≈ 0.59 µM)	-0.157 ± 0.018	14.8 ± 1.3
medium (conditioned by secondary species or non-conditioned control): B. cepacia	0.144 ± 0.0027 (≈ 0.308 µM)	-0.131 ± 0.015	10.6 ± 0.37
medium (conditioned by secondary species or non-conditioned control): C. albicans	0.565 ± 0.011 (≈ 1.21 µM)	-0.214 ± 0.024	3.52 ± 0.41
medium (conditioned by secondary species or non-conditioned control): H. influenzae	0.185 ± 0.033 (≈ 0.397 µM)	-0.126 ± 0.053	14.4 ± 6.6
medium (conditioned by secondary species or non-conditioned control): M. abcessus	0.135 ± 0.02 (≈ 0.288 µM)	-0.095 ± 0.019	4.76 ± 2.6
medium (conditioned by secondary species or non-conditioned control): M. avium	0.201 ± 0.0085 (≈ 0.429 µM)	-0.17 ± 0.019	9.2 ± 1.7
medium (conditioned by secondary species or non-conditioned control): M. catarrhalis	0.145 ± 0.0072 (≈ 0.31 µM)	-0.134 ± 0.043	9.95 ± 1.6
medium (conditioned by secondary species or non-conditioned control): MH broth	0.136 ± 0.024 (≈ 0.29 µM)	-0.122 ± 0.022	5.72 ± 2.2
medium (conditioned by secondary species or non-conditioned control): MH broth + ADC	0.197 ± 0.0065	-0.172 ± 0.018	11.3 ± 2.3
medium (conditioned by secondary species or non-conditioned control): MH broth + LHB + NAD	0.138 ± 0.0033	-0.116 ± 0.02	10.7 ± 1.3
medium (conditioned by secondary species or non-conditioned control): MH broth + glucose	0.393 ± 0.0069	-0.21 ± 0.017	3.39 ± 0.69
medium (conditioned by secondary species or non-conditioned control): R. mannitolilytica	0.0784 ± 0.0077 (≈ 0.168 µM)	-0.107 ± 0.018	8.12 ± 2.7
medium (conditioned by secondary species or non-conditioned control): S. aureus	0.0695 ± 0.0024 (≈ 0.149 µM)	-0.121 ± 0.018	10 ± 1.5
medium (conditioned by secondary species or non-conditioned control): S. maltophilia	0.137 ± 0.0019 (≈ 0.293 µM)	-0.197 ± 0.021	6.76 ± 0.86
medium (conditioned by secondary species or non-conditioned control): S. pneumoniae	0.471 ± 0.055 (≈ 1.01 µM)	-0.128 ± 0.032	12.4 ± 5.3
